The values below are quoted from earlier work in patent publication US20060069157A1, “Method of ameliorating or abrogating the effects of a neurodegenerative disorder, such as Huntington's disease, by sodium butyrate chemotherapy” (U.S. DEPARTMENT OF VETERANS AFFAIRS, priority 2004, published 2006).

The subject of one series is transgenic HD mice. The settings on record: cyclodextrin as a carrier; transgenic HD mice (Hockly et al., 2003); cited from earlier work.
The subject of the next series is Drosophila model of HD. The note with it: Drosophila model of HD (Steffan 2001); cited from earlier work.

In the case of `O=C(CCCCCCC(=O)Nc1ccccc1)NO` [SAHA, suberoylanilide hydroxamic acid], in the series on transgenic HD mice, the histone levels entry is listed as “increase histone levels” and the motor performance entry was “improve motor performance”. For the same compound, the “photoreceptor neuron degeneration and lethality” value with Drosophila model of HD was “slow photoreceptor neuron degeneration and ameliorate lethality”.
